# Measured values: patent US8119844B2, “Alcohol production process” (LanzaTech New Zealand Limited, priority 2008, dated 2012)
# Like-named read-outs stand apart in the source and are kept apart here.
# Tests used:
# Clostridium pasteurianum [1] = assay: Effect of methanol on the fermentation of glycerol to butanol (serum bottle); type: cell-based; conditions: for Acetate Consumption / Final Butanol / Final Butyrate / Glycerol Consumption: 30 g/l glycerol, 2 g/l acetate, after 36 hours of fermentation
# From the text: In this experiment, the effect of methanol on the conversion of commercial glycerol to butanol was studied. […] In addition, acetate and glycerol consumption decreased.
# Clostridium pasteurianum [2] = conditions: for Acetate Consumption / Acetate Consumption (percent of starting acetate) / Final Acetate / Final Butanol / Final Butyrate / Glycerol Consumption: 30 g/l glycerol, after 3 days of fermentation
# Protocol: LM31 media at pH 7.4 was prepared as follows. All ingredients with the exception of Cysteine-HCl were mixed in 400 ml distilled water. This solution was made anaerobic by heating to boiling and allowing it to cool to room temperature under a constant flow of N2 gas. Once cool, the Cysteine-HCl was added and the pH of the solution adjusted to 7.4 before making the volume up to 1000 ml; anaerobicity was maintained throughout the experiments.
# Bacteria: Clostridium pasteurianum were obtained from the German Resource Centre for Biological Material (DSMZ). The accession number given to the bacteria is DSMZ 525.
# Incubation was performed in 234 ml sealed serum bottles each containing 50 ml of the media LM31. The 184 ml headspace of each serum bottle was first flushed three times with N2 gas, before being evacuated and filed to an overpressure of 5 psig. Each bottle was inoculated with 1 ml of a Clostridium pasteurianum culture. A shaking incubator was used and the reaction temperature was maintained at 37° C.
# Media samples were taken at intervals over a 3 day period. Each time the media was sampled care was taken to ensure that no gas was allowed to enter into or escape from the serum bottle.
# All samples were used to establish the absorbancy at 600 nm (spectrophotometer) and the level of substrates and products (GC or HPLC). HPLC was routinely used to quantify the level of glycerol, methanol, acetate, and ethanol. When n-butyric acid and butanol were present, GC was used in combination with HPLC to quantify the levels of all substrates and products (glycerol, acids and alcohols).
# The aim was to test the effect of initial acetate concentration on glycerol fermentation by Clostridium pasteurianum to produce butanol.
# Clostridium pasteurianum [3] = assay: Comparison of fermentation of commercial glycerol and glycerol from biodiesel waste for butanol production; type: cell-based; conditions: 30 g/l commercial glycerol, 2 g/l acetate, after 36 hours of fermentation
# Protocol: Thirty grams biodiesel waste was dissolved in water up to 100 ml and stirred until the solution was homogenous. While stirring, 10% Hydrochloric acid solution was added until pH was below 3.0, so total coagulation of free fatty acid would occur. In order to improve the phase separation, the sample was centrifuged for 1 minute at 4,000 g. At this stage 3 phases could be seen: the top layer appeared oily and contained mostly FAME (Fatty acid methyl ester); the middle phase contained mostly coagulated free fatty acids; and, the bottom phase (aqueous phase) was clear and contained mostly water, glycerol and methanol. The aqueous phase was withdrawn carefully, filtered on a 0.2 μm filter and pH was then raised to pH 7.0 by addition of Sodium hydroxide. At this stage, methanol was evaporated by heating the solution under stirring and vacuum maintained with a water-jet. Finally water can be added in order to dilute the glycerol solution.
# The aim of this experiment was to test the glycerol obtained from biodiesel waste, in a fermentation with Clostridium pasteurianum to produce butanol, in the presence of 2 g/l acetate initial concentration. The conversion of commercial glycerol (first row) was compared with glycerol obtained from biodiesel waste containing methanol (second row) or where methanol was evaporated (last row). […] Levels of butanol and biomass were the highest for bacteria growing on glycerol obtained from biodiesel, where methanol was evaporated. Acetate (50%) was also consumed.
compound,measurement,setting,value
CO [Methanol],Acetate Consumption,Clostridium pasteurianum [1]; starting methanol 5.6 g/l,0.8 g/L
same,Final Butanol,Clostridium pasteurianum [1]; starting methanol 5.6 g/l,2.4 g/L
same,Final Butyrate,Clostridium pasteurianum [1]; starting methanol 5.6 g/l,0.8 g/L
same,Glycerol Consumption,Clostridium pasteurianum [1]; starting methanol 5.6 g/l,14 g/L
same,Acetate Consumption,Clostridium pasteurianum [1]; starting methanol 11.2 g/l,0.8 g/L
same,Final Butanol,Clostridium pasteurianum [1]; starting methanol 11.2 g/l,2.0 g/L
same,Final Butyrate,Clostridium pasteurianum [1]; starting methanol 11.2 g/l,0.6 g/L
same,Glycerol Consumption,Clostridium pasteurianum [1]; starting methanol 11.2 g/l,13 g/L
same,Acetate Consumption,Clostridium pasteurianum [1]; starting methanol 16.3 g/l,0.6 g/L
same,Final Butanol,Clostridium pasteurianum [1]; starting methanol 16.3 g/l,1.1 g/L
same,Final Butyrate,Clostridium pasteurianum [1]; starting methanol 16.3 g/l,0.6 g/L
same,Glycerol Consumption,Clostridium pasteurianum [1]; starting methanol 16.3 g/l,11 g/L
same,effect on the bacteria and butanol production,"Clostridium pasteurianum [1]; increasing amounts of methanol, commercial glycerol",increasing inhibitory effect
"CC(=O)O [Acetate, Acetic acid, glacial, 99.8%]",Acetate Consumption,Clostridium pasteurianum [2]; starting acetate 1.4 g/l,0.4 g/L
same,Acetate Consumption (percent of starting acetate),Clostridium pasteurianum [2]; starting acetate 1.4 g/l,28%
same,Final Acetate,Clostridium pasteurianum [2]; starting acetate 1.4 g/l,1.0 g/L
same,Final Butanol,Clostridium pasteurianum [2]; starting acetate 1.4 g/l,3.0 g/L
same,Final Butyrate,Clostridium pasteurianum [2]; starting acetate 1.4 g/l,0.5 g/L
same,Glycerol Consumption,Clostridium pasteurianum [2]; starting acetate 1.4 g/l,12 g/L
same,Acetate Consumption,Clostridium pasteurianum [2]; starting acetate 2.2 g/l,1.0 g/L
same,Acetate Consumption (percent of starting acetate),Clostridium pasteurianum [2]; starting acetate 2.2 g/l,45%
same,Final Acetate,Clostridium pasteurianum [2]; starting acetate 2.2 g/l,1.2 g/L
same,Final Butanol,Clostridium pasteurianum [2]; starting acetate 2.2 g/l,3.5 g/L
same,Final Butyrate,Clostridium pasteurianum [2]; starting acetate 2.2 g/l,0.7 g/L
same,Glycerol Consumption,Clostridium pasteurianum [2]; starting acetate 2.2 g/l,13 g/L
same,Acetate Consumption,Clostridium pasteurianum [2]; starting acetate 3.5 g/l,1.6 g/L
same,Acetate Consumption (percent of starting acetate),Clostridium pasteurianum [2]; starting acetate 3.5 g/l,45%
same,Final Acetate,Clostridium pasteurianum [2]; starting acetate 3.5 g/l,1.9 g/L
same,Final Butanol,Clostridium pasteurianum [2]; starting acetate 3.5 g/l,3.1 g/L
same,Final Butyrate,Clostridium pasteurianum [2]; starting acetate 3.5 g/l,1.1 g/L
same,Glycerol Consumption,Clostridium pasteurianum [2]; starting acetate 3.5 g/l,12 g/L
same,acetate consumed in the course of the reaction,Clostridium pasteurianum [2]; increasing amounts of acetate added at the start of the fermentation,up to 45%
"OCC(O)CO [commercial glycerol, glycerol]",Acetate Consumption,Clostridium pasteurianum [3],1.0 g/L
same,Acetate Consumption (percent),Clostridium pasteurianum [3],50%
same,Final Butanol,Clostridium pasteurianum [3],2.9 g/L
same,Final Butyrate,Clostridium pasteurianum [3],0.7 g/L
same,Glycerol Consumption,Clostridium pasteurianum [3],15 g/L
